The data set in a line: pH of a diphosphonate solution in distilled water. Format: physicochemical. The following applies: solution of one percent in distilled water. An excerpt:
Solutions of diphosphonates will generally have a pH above that desired. For example, a solution of one percent pamidronate disodium salt in distilled water has a pH of approximately 8.3. The pH is adjusted with a suitable acid or alkali. Suitable acids include any acid such as hydrochloric or phosphoric acid. Phosphoric acid is preferred. Suitable […] include sodium hydroxide.

Where a name gives a salt, the structure may show the parent alone.

`NCCC(O)(P(=O)(O)O)P(=O)(O)O` [pamidronate disodium salt]: the pH of solution entry was “approximately 8.3”.

For the origin of these results see patent US20060154898A1, “Diphosphonate solutions” (priority 2000, published 2006).
